Data reported in ChEMBL document CHEMBL5653615 (J Biol Chem, 2013).

Key:
[1] = target: T1, Serine/threonine-protein kinase A-Raf (Homo sapiens) (UniProt P10398); assay: Inhibition of human ARAF at 500 nM by HotSpot assay relative to control
T1 sequence (whole entry): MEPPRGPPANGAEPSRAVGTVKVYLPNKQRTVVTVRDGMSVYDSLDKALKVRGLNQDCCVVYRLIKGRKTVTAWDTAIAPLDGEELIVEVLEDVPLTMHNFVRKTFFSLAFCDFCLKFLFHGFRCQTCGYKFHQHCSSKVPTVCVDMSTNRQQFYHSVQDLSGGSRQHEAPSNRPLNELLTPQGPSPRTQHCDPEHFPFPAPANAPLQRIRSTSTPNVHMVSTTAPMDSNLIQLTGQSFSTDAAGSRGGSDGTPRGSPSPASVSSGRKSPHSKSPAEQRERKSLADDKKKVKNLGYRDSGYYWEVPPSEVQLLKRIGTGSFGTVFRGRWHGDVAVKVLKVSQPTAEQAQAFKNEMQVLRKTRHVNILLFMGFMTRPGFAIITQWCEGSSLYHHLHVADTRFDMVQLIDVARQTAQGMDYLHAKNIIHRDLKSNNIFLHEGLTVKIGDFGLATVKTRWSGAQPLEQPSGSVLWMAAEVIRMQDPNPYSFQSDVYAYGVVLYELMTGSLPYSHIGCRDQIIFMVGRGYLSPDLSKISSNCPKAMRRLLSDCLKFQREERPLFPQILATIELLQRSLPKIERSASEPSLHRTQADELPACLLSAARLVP

[2] = target: Rho-associated protein kinase 2 (Homo sapiens) (UniProt O75116); assay: Inhibition of human ROCK2 at 500 nM by HotSpot assay relative to control
[3] = target: Macrophage-stimulating protein receptor (Homo sapiens) (UniProt Q04912); assay: Inhibition of human MST1R at 500 nM by HotSpot assay relative to control
[4] = target: Protein kinase C eta type (Homo sapiens) (UniProt P24723); assay: Inhibition of human PKCeta at 500 nM by HotSpot assay relative to control
[5] = target: Insulin-like growth factor 1 receptor (Homo sapiens, UniProt P08069); assay: Inhibition of inactive form of IGF-1R (unknown origin) kinase domain incubated for 1 hr by [gamma-33P]ATP assay
[6] = target: T2, Ephrin type-A receptor 3 (Homo sapiens) (UniProt P29320); assay: Inhibition of human EPHA3 at 500 nM by HotSpot assay relative to control
T2 sequence (whole entry): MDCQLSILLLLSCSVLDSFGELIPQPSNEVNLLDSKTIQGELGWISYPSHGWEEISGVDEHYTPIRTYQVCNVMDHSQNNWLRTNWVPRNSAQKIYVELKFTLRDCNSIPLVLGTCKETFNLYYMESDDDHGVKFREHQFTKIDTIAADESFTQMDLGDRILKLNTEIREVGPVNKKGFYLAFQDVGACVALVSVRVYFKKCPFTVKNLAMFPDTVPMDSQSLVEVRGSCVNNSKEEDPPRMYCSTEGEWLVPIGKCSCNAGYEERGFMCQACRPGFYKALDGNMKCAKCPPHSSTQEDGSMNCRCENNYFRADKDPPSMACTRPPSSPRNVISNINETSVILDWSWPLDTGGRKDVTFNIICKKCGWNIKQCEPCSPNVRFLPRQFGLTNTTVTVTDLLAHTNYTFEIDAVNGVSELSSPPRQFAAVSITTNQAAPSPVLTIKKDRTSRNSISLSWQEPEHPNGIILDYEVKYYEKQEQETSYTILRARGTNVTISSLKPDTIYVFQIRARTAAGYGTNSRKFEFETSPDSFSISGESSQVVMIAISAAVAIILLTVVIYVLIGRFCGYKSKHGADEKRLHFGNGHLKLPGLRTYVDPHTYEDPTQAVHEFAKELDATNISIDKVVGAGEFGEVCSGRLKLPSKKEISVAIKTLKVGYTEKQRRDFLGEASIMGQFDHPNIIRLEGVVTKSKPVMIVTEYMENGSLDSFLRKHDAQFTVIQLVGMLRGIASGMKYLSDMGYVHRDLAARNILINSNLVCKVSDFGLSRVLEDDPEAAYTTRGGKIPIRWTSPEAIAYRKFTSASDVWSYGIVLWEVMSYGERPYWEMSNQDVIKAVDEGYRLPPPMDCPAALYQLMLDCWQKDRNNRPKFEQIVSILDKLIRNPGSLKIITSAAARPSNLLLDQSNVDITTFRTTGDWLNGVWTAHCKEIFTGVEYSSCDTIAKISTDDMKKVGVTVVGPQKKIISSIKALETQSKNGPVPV

[7] = target: T3, Homeodomain-interacting protein kinase 4 (Homo sapiens) (UniProt Q8NE63); assay: Inhibition of human HIPK4 at 500 nM by HotSpot assay relative to control
T3 sequence (whole entry): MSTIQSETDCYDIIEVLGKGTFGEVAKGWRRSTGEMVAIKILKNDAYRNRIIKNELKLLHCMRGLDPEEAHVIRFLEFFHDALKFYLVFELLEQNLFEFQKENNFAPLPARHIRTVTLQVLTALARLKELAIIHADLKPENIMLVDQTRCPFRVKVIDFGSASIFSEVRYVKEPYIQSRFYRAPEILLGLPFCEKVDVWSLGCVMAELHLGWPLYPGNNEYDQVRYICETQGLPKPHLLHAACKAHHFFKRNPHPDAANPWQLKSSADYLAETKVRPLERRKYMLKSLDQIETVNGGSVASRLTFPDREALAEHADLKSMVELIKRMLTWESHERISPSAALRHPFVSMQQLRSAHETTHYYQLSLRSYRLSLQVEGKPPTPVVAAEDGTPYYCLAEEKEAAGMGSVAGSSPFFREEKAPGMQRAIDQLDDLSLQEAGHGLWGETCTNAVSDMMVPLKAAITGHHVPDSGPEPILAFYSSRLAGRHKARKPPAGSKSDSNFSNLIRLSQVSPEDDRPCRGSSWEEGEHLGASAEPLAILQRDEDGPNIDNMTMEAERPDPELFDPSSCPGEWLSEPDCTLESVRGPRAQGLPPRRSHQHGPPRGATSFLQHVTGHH

[8] = target: G protein-coupled receptor kinase 6 (Homo sapiens) (UniProt P43250); assay: Inhibition of human GRK6 at 500 nM by HotSpot assay relative to control
[9] = target: CDK4/Cyclin D3 (Homo sapiens) (UniProt P11802+P30281); assay: Inhibition of human CDK4/cyclin D3 at 500 nM by HotSpot assay relative to control; format: protein-complex assay
[10] = target: Tyrosine-protein kinase Fes/Fps (Homo sapiens) (UniProt P07332); assay: Inhibition of human FES at 500 nM by HotSpot assay relative to control

Chain of Insulin-like growth factor 1 receptor (P08069 31-736 limits assumed): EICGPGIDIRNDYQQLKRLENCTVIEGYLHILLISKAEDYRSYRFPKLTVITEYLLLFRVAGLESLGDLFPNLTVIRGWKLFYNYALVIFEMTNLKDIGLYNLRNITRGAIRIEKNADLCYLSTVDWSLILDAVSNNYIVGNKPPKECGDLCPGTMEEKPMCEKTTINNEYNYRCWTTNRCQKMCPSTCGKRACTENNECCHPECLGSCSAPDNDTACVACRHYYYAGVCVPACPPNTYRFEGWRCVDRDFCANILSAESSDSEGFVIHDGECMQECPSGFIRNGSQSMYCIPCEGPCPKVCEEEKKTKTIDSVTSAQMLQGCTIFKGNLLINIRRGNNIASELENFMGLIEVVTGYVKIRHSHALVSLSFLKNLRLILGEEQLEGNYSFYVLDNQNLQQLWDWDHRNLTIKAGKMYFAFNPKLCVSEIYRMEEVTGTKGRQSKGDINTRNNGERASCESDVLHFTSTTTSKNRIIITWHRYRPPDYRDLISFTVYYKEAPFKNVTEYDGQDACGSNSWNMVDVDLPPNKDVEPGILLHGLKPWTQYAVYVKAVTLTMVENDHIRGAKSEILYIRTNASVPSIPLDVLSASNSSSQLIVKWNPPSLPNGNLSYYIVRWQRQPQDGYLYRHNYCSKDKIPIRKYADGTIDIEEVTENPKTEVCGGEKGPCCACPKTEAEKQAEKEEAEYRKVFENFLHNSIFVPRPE
Chain of Insulin-like growth factor 1 receptor (P08069 741-1367 limits assumed): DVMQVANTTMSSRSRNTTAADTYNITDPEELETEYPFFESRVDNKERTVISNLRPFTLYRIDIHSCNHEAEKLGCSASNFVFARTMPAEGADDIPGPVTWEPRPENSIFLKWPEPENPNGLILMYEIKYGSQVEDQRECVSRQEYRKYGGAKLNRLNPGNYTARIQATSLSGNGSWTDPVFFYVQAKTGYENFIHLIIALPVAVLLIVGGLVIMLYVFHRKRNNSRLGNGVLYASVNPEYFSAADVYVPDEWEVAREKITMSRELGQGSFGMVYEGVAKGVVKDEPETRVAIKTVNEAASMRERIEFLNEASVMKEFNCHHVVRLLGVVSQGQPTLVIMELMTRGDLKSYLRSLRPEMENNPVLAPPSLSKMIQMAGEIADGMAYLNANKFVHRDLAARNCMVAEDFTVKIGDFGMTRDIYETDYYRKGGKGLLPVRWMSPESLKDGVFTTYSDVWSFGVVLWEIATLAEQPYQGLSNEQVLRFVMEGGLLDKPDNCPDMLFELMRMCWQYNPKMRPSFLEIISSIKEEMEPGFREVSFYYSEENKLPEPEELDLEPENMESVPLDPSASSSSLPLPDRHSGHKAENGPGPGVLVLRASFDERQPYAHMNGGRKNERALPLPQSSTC
Chain of Protein kinase C eta type (Homo sapiens) (P24723 whole entry, the tested form may be a part): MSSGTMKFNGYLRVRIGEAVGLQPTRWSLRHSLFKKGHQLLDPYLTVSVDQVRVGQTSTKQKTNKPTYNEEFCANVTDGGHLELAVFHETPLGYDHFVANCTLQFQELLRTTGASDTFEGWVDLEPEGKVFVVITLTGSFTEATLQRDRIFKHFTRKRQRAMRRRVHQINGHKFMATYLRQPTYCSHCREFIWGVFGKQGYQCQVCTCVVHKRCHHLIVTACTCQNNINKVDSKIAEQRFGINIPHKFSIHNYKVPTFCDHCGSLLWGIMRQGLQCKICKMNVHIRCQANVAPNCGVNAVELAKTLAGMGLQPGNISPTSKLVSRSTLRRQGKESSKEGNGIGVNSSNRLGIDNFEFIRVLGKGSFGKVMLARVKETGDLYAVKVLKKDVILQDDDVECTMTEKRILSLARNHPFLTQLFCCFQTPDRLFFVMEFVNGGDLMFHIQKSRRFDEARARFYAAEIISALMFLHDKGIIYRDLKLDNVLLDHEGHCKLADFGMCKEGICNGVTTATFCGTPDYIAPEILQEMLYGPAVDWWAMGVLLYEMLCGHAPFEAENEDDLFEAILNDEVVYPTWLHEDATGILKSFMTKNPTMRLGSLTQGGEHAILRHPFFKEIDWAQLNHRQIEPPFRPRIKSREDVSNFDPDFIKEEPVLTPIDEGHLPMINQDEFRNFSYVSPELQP
Chain of Macrophage-stimulating protein receptor (Homo sapiens) (Q04912 25-304 limits assumed): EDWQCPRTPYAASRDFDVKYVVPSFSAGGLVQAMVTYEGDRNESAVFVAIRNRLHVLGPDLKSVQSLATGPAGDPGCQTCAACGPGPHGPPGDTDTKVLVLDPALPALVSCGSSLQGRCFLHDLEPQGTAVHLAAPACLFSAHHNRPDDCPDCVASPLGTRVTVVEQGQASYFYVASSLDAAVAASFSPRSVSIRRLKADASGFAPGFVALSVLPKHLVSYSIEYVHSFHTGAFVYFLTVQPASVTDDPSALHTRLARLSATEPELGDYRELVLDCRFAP
Chain of Macrophage-stimulating protein receptor (Homo sapiens) (Q04912 310-1400 limits assumed): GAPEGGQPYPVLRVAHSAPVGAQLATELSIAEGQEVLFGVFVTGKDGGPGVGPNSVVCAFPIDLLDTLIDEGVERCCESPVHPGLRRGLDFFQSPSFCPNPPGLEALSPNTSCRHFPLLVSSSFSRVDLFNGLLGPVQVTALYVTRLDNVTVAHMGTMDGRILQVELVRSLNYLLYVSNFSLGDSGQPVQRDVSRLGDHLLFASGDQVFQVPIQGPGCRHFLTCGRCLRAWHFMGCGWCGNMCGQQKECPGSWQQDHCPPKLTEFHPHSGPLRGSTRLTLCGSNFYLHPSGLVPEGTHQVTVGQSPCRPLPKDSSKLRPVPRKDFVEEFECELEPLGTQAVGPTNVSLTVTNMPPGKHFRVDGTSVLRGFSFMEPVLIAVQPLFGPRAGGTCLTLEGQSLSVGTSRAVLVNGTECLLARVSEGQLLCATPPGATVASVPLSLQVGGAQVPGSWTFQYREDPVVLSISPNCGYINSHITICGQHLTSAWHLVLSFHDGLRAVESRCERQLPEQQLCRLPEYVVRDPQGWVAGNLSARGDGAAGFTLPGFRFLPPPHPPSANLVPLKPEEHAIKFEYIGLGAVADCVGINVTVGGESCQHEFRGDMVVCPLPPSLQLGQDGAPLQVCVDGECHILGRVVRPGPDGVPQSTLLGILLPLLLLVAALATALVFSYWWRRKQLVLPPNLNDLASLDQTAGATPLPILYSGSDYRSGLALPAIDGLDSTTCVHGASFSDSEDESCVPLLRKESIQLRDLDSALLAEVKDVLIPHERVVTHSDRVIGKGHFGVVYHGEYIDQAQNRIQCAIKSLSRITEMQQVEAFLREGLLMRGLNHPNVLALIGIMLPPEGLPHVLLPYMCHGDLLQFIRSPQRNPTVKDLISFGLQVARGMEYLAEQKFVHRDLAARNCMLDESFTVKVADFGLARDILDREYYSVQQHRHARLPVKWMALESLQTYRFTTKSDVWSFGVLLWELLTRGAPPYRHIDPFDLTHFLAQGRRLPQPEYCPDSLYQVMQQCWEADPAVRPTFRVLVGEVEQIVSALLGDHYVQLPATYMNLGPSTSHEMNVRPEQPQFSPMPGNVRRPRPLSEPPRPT
Chain of Rho-associated protein kinase 2 (Homo sapiens) (O75116 whole entry, looked up): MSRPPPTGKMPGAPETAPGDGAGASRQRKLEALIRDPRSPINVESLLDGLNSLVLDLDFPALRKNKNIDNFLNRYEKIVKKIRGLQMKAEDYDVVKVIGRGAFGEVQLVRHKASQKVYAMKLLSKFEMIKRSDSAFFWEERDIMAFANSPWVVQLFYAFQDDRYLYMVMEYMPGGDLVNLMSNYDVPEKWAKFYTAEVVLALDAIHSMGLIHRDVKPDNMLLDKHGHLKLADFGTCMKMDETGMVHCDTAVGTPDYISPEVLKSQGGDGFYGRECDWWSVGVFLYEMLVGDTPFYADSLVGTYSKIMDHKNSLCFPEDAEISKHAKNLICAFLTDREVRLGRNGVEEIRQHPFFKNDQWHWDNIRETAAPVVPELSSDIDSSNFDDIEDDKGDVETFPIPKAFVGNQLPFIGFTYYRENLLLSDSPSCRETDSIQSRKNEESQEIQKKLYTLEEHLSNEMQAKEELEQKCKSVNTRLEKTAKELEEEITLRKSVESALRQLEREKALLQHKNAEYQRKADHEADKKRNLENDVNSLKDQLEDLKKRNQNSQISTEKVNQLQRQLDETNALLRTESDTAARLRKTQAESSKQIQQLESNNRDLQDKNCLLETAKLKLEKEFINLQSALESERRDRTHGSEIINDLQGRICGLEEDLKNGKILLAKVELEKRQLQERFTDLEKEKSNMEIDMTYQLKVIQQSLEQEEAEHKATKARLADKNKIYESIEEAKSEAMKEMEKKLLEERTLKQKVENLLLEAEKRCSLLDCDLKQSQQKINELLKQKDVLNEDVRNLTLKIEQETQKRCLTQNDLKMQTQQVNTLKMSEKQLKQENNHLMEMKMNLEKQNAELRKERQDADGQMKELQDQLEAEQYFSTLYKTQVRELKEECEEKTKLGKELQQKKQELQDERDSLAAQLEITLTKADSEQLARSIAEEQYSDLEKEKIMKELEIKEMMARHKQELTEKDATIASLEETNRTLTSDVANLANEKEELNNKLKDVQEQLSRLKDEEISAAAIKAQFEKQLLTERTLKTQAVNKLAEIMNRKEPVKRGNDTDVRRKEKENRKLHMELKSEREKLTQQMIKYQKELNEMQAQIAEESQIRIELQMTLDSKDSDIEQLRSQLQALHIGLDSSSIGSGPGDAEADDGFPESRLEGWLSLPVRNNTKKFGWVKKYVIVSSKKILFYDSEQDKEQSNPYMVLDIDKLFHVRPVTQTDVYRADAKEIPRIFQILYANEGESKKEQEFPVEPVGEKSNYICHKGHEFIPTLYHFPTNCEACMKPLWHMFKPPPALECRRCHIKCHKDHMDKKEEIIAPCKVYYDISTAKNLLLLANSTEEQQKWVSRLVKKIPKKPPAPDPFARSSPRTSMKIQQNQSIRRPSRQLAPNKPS

## Nc1n[nH]c2nnc(-c3c(-c4ccccc4)nn4ccccc34)cc12
[1]
  inhibition: 1.59%
[2]
  inhibition: 10.4%
[3]
  inhibition: -1.66%
[4]
  inhibition: 22.8%
[5]
  IC50: 32.5 µM
[6]
  inhibition: 2.18%
[7]
  inhibition: 4.73%
[8]
  inhibition: 0.69%
[9]
  inhibition: -0.36%
[10]
  inhibition: 2.16%

## Oc1n[nH]c2nnc(-c3c(-c4ccccc4)nn4ccccc34)cc12
[1]
  inhibition: 2.19%
[2]
  inhibition: 0.7%
[3]
  inhibition: -6.32%
[4]
  inhibition: 3.76%
[5]
  IC50: 10.2 µM
[6]
  inhibition: 5.45%
[7]
  inhibition: 9.6%
[8]
  inhibition: 1.01%
[9]
  inhibition: -0.94%
[10]
  inhibition: 0.31%
